Measured values as given in patent US10604512B2, “3-(1H-indol-2-yl)-1H-indazoles and therapeutic uses thereof” (Samumed, LLC, priority 2015, dated 2020).

What was measured:
Type in all cases: cell-based
IL-6 = test: Inhibition of IL-6 in LPS-stimulated THP-1 human monocyte cells (HTRF); settings: IL-6 inhibition, LPS-stimulated THP-1 cells, HTRF
Experimental: Human monocyte cell line (THP-1 cells; Catalog # TIB-202, ATCC, Manassas, Va.) were cultured in Roswell Park Memorial Institute (RPMI) 1640 Medium (Catalog #21870-100, Buffalo, N.Y.) with 1% L-glutamine, 1% HEPES, 1% Sodium Pyruvate, 2% Sodium Bicarbonate supplemented with 100 units/mL penicillin, 50 μg/mL streptomycin, 2-mercaptoethanol (0.05 mM) [basal medium] and 10% fetal bovine serum (Catalog #16140089, Life Technologies, Carlsbad, Calif.) at 37° C. and 5% CO2.
THP-1 cells were cultured in basal media with 1% FBS for 24 hours before the start of the assay. Each compound was dissolved in DMSO as a 10 mM stock and used to prepare compound source plates. Serial dilution (1:3, 10-point dose-response curves starting from 10 μM) and compound transfer was performed using the ECHO 550 (Labcyte, Sunnyvale, Calif.) into 384-well white low volume assay plates (Greiner Bio-One) with appropriate DMSO backfill for a final DMSO concentration of 0.1%. THP-1 cells were plated at 5000 cells/well in the 384-well plates and incubated at 37° C. for 2 h. 500 ng/mL of LPS was added after 2 hours and cells were incubated for another 22 hours at 37° C. Plates were spun in a centrifuge for 1 minute at […] and a mixture of anti-IL6 XL665, and anti-IL6 Cryptate diluted in reconstitution buffer (Cisbio Inc.) was added to each well. Following incubation for 3 hrs at room temperature, Homogeneous Time-Resolved Fluorescence (HTRF) was measured using the Envision (Perkin Elmer) at 665 nm and […]. The ratio of fluorescence at 665 nm to 620 nm was used as a readout for IL6 quantification. All samples were processed in duplicate. Readings were normalized to DMSO treated cells and normalized activities were utilized for EC50 calculations using the dose-response log (inhibitor) vs. response variable slope (four parameters) nonlinear regression feature available in GraphPad Prism 5.0 (or Dotmatics). For EC50 of >10 μM, the percent inhibition at 10 μM is provided.

[1] = system: Primary human fibroblasts derived from IPF patients (LL29 cells) treated with TGF-β1; test: Inhibition of the fibrotic process: αSMA staining in TGF-β1-treated primary human fibroblasts from IPF patients (LL29 cells); settings: Fibroblast, 96 h, % αSMA-positive LL29 cells, TGF-β1 20 ng/mL, 4 days
Source text: Representative compounds were screened using primary human fibroblasts (derived from IPF patients) treated with TGF-β1 to determine their ability to inhibit the fibrotic process.
Primary human fibroblasts derived from IPF patients (LL29 cells) [^1Xiaoqiu Liu, et. al., “Fibrotic Lung Fibroblasts Show Blunted Inhibition by cAMP Due to Deficient cAMP Response Element-Binding Protein Phosphorylation”, Journal of Pharmacology and Experimental Therapeutics (2005), 315(2), 678-687; ^2Watts, K. L., et. al., “RhoA signaling modulates cyclin D1 expression in human lung fibroblasts; implications for idiopathic pulmonary fibrosis”, Respiratory Research (2006), 7(1), 88] were obtained from American Type Culture Collection (ATCC) and expanded in F12 medium supplemented with 15% Fetal Bovine Serum and Penicillin/Streptomycin.
Each compound was dissolved in DMSO as a 10 mM stock and used to prepare compound source plates. Serial dilution (1:2, 11-point dose-response curves from 10 μM to […]) and compound transfer was performed using the ECHO 550 (Labcyte, Sunnyvale, Calif.) into 384-well clear bottom assay plates (Greiner Bio-One) with appropriate DMSO backfill for a final DMSO concentration of 0.1%. LL29 cells are plated at 1,500 cells/well in 80 μL/well F12 medium supplemented with 1% Fetal Bovine Serum. One hour after addition of the cells, TGF-β1 (Peprotech; 20 ng/mL) was added to the plates to induce fibrosis (ref 1 and 2 above). Wells treated with TGF-β1 and containing DMSO were used as controls. Cells were incubated at 37° C. and 5% CO2 for 4 days. Following incubation for 4 days, SYTOX green nucleic acid stain (Life Technologies [Thermo Fisher Scientific]) was added to the wells at a final concentration of 1 μM and incubated at room temperature for 30 min. Cells were then fixed using 4% formaldehyde (Electron Microscopy Sciences), washed 3 times with PBS followed by blocking and permeabilization using 3% Bovine Serum Albumin (BSA; Sigma) and 0.3% Triton X-100 (Sigma) in PBS. Cells were then stained with antibody specific to α-smooth muscle actin (αSMA; Abcam) (ref 1 and 2 above) in 3% Bovine Serum Albumin (BSA; Sigma) and 0.3% Triton X-100 (Sigma) in PBS, and incubated overnight at 4° C. Cells were then washed 3 times with PBS, followed by incubation with Alexa Flor-647 conjugated secondary antibody (Life Technologies [Thermo Fisher Scientific]) and DAPI at room temperature for 1 hour. Cells were then washed 3 times with PBS and plates were sealed for imaging. αSMA staining was imaged by excitation at 630 nm and emission at 665 nm and quantified using the Compartmental Analysis program on the CellInsight CX5 (Thermo Scientific). Dead or apoptotic cells were excluded from analysis based on positive SYTOX green staining. % of total cells positive for αSMA were counted in each well and normalized to the average of 11 wells treated with TGF-β1 on the same plate using Dotmatics' Studies Software. The normalized averages (fold change over untreated) of 3 replicate wells for each compound concentration were used to create dose-responses curves and EC50 values were calculated using non-linear regression curve fit in the Dotmatics' Studies Software. For EC50 of >10 μM, the percent inhibition at 10 μM is provided.

[2] = system: Wnt activity (Sp5-Luc reporter, TCF/LEF binding sites) in SW480 colon carcinoma cells; test: Screening assay for Wnt activity: Sp5-Luc reporter gene assay in stably transduced SW480 colon carcinoma cells; settings: Homo sapiens, overnight incubation, 10-point curve from 10 μM
Source text: The screening assay for Wnt activity is described as follows. Reporter cell lines can be generated by stably transducing cancer cell lines (e.g., colon cancer) or primary cells (e.g., IEC-6 intestinal cells) with a lentiviral construct that includes a Wnt-responsive promoter driving expression of the firefly luciferase gene.
SW480 colon carcinoma cells were transduced with a lentiviral vector expressing luciferase with a human Sp5 promoter consisting of a sequence of eight TCF/LEF binding sites. SW480 cells stably expressing the Sp5-Luc reporter gene and a hygromycin resistance gene were selected by treatment with 150 μg/mL of hygromycin for 7 days. These stably transduced SW480 cells were expanded in cell culture and used for all further screening activities. Each compound was dissolved in DMSO as a 10 mM stock and used to prepare compound source plates. Serial dilution (1:3, 10-point dose-response curves starting from 10 μM) and compound transfer was performed using the ECHO 550 (Labcyte, Sunnyvale, Calif.) into 384-well white solid bottom assay plates (Greiner Bio-One) with appropriate DMSO backfill for a final DMSO concentration of 0.1%. For Sp5-Luc reporter gene assays, the cells were plated at 4,000 cells/well in 384-well plates with medium containing 1% fetal bovine serum and incubated overnight at 37° C. and 5% CO2. Following incubation, 20 μl of BrightGlo luminescence reagent (Promega) was added to each well of the 384-well assay plates. The plates were placed on an orbital shaker for 2 min and then luminescence was quantified using the Envision (Perkin Elmer) plate reader. Readings were normalized to DMSO only treated cells, and normalized activities were utilized for EC50 calculations using the dose-response log (inhibitor) vs. response variable slope (four parameters) nonlinear regression feature available in GraphPad Prism 5.0 (or Dotmatics). For EC50 of >10 μM, the percent inhibition at 10 μM is provided.

SW480 colon cancer cells = test: Cell viability assay (CellTiter-Blue) in SW480 colon cancer cells; settings: Homo sapiens, 96 h, four days, CellTiter-Blue
Experimental: Representative compounds were screened using the following assay procedure to assess the effect on cell viability as described below.
Each compound was dissolved in DMSO as a 10 mM stock and used to prepare compound source plates. Serial dilution (1:3, 8-point dose-response curves from 10 μM to 0.0045 μM) and compound transfer was performed using the ECHO 550 (Labcyte, Sunnyvale, Calif.) into 96-well clear bottom, black-walled plates (Corning-Costar).
Approximately 2×10^3 SW480 colon cancer cells were seeded into each well and allowed to incubate in the presence or absence of compound for four days at 37° C./5% CO2. Eight replicates of DMSO-treated cells served as controls and cells treated with compound were performed in duplicate.
After incubation, 20 μL of CellTiter-Blue (Promega) was added to each well allowed to incubate for approximately 3 hours. This reagent was a buffered solution which contains resazurin, metabolically active cells were able to reduce rezarurin (blue) into resorufin (pink) which was highly fluorescent. This measured fluorescence was used as a readout for cell viability.
After incubation, the plates were read at Ex 560 nm Em 590 nm (Cytation 3, BioTek). Dose-response curves were generated and EC50 concentration values were calculated using non-linear regression curve fit in the GraphPad Prism (San Diego, Calif.) or Dotmatics' Studies Software (Bishops Stortford, UK). For EC50 of >10 μM, the percent inhibition at 10 μM is provided.

| SMILES | EC50 (IL-6) [µM] | EC50 [2] [µM] | EC50 (SW480 colon cancer cells) [µM] | EC50 [1] [µM] |
| --- | --- | --- | --- | --- |
| CS(=O)(=O)NCc1cc(F)cc(-c2cccc3[nH]c(-c4n[nH]c5ccc(-c6cncc(OCc7ccccc7)c6)cc45)cc23)c1 [Compound 802, N-(3-(2-(5-(5-(Benzyloxy)pyridin-3-yl)-1H-indazol-3-yl)-1H-indol-4-yl)-5-fluorobenzyl)methanesulfonamide] | 0.802 | 0.189 | 0.461 | 0.4 |
| Cc1ccncc1-c1ccc2[nH]nc(-c3cc4c(-c5cccc(F)c5)cccc4[nH]3)c2c1 [Compound 5, 3-(4-(3-Fluorophenyl)-1H-indol-2-yl)-5-(4-methylpyridin-3-yl)-1H-indazole] | 0.834 | 0.3 | 0.563 | 0.737 |
| c1cncc(-c2cccc3[nH]c(-c4n[nH]c5ccc(-c6cn[nH]c6)cc45)cc23)c1 [Compound 583, 5-(1H-Pyrazol-4-yl)-3-(4-(pyridin-3-yl)-1H-indol-2-yl)-1H-indazole] | 0.078 | 0.049 | 0.128 | 0.501 |
| Cc1ccncc1-c1ccc2[nH]nc(-c3cc4c(-c5cc(F)cc(CNS(C)(=O)=O)c5)cccc4[nH]3)c2c1 [Compound 481, N-(3-Fluoro-5-(2-(5-(4-methylpyridin-3-yl)-1H-indazol-3-yl)-1H-indol-4-yl)benzyl)methanesulfonamide] | 0.122 | 0.105 | 0.891 | 0.156 |

More lines, main results first:

| EC50 (IL-6) [µM] | EC50 [2] [µM] | EC50 (SW480 colon cancer cells) [µM] | SMILES | EC50 [1] [µM] |
| --- | --- | --- | --- | --- |
| 0.876 | 0.138 | 0.31 | CCCC(=O)Nc1cncc(-c2ccc3[nH]nc(-c4cc5c(-c6cc(F)cc(NCCN(C)C)c6)cccc5[nH]4)c3c2)c1 [Compound 465, N-(5-(3-(4-(3-((2-(Dimethylamino)ethyl)amino)-5-fluorophenyl)-1H-indol-2-yl)-1H-indazol-5-yl)pyridin-3-yl)butyramide] | 0.224 |
| 1.29 | 0.137 | 0.303 | CC(C)CC(=O)Nc1cncc(-c2ccc3[nH]nc(-c4cc5c(-c6cc(F)cc(NCCN(C)C)c6)cccc5[nH]4)c3c2)c1 [Compound 450, N-(5-(3-(4-(3-((2-(Dimethylamino)ethyl)amino)-5-fluorophenyl)-1H-indol-2-yl)-1H-indazol-5-yl)pyridin-3-yl)-3-methylbutanamide] | 0.191 |
| 3.14 | 0.475 | 3.27 | CS(=O)(=O)NCc1cc(F)cc(-c2cccc3[nH]c(-c4n[nH]c5ccc(-c6cncc(CN7CCC(F)(F)C7)c6)cc45)cc23)c1 [Compound 502, N-(3-(2-(5-(5-((3,3-Difluoropyrrolidin-1-yl)methyl)pyridin-3-yl)-1H-indazol-3-yl)-1H-indol-4-yl)-5-fluorobenzyl)methane sulfonamide] | 0.811 |
| 0.2 | 0.45 | 0.633 | CN(C)c1cncc(-c2ccc3[nH]nc(-c4cc5c(-c6ccoc6)cccc5[nH]4)c3c2)c1 [Compound 315, 5-(3-(4-(Furan-3-yl)-1H-indol-2-yl)-1H-indazol-5-yl)-N,N-dimethylpyridin-3-amine] | 4.27 |
| 0.595 | 0.135 | 0.817 | CCC(=O)Nc1cncc(-c2ccc3[nH]nc(-c4cc5c(-c6cc(F)cc(CNS(C)(=O)=O)c6)cccc5[nH]4)c3c2)c1 [Compound 477, N-(5-(3-(4-(3-Fluoro-5-(methylsulfonamidomethyl)phenyl)-1H-indol-2-yl)-1H-indazol-5-yl)pyridin-3-yl)propionamide] | 0.224 |
| 0.174 | 0.475 | 1.87 | CC(C)(C)CC(=O)Nc1cncc(-c2ccc3[nH]nc(-c4cc5c(-c6cccnc6)cccc5[nH]4)c3c2)c1 [Compound 100, 3,3-Dimethyl-N-(5-(3-(4-(pyridin-3-yl)-1H-indol-2-yl)-1H-indazol-5-yl)pyridin-3-yl)butanamide] | 0.449 |
| 0.163 | 0.1 | 1.14 | CC(C)Nc1cncc(-c2ccc3[nH]nc(-c4cc5c(-c6cccnc6)cccc5[nH]4)c3c2)c1 [Compound 96, N-Isopropyl-5-(3-(4-(pyridin-3-yl)-1H-indol-2-yl)-1H-indazol-5-yl)pyridin-3-amine] | 0.162 |
